Test results published in patent US20250099364A1, “METHOD AND COMPOSITIONS FOR COSMETIC COMPOSITIONS” (MARY KAY INC., priority 2023, published 2025).

Columns and labels:
Format in all cases: cell-based
[1] = test system: IL-15 production in keratinocytes; assay: IL-15 production in keratinocytes treated with oxytocin; settings: 24 hours
Method: FIG. 4. Keratinocytes were treated with oxytocin for 24 hours.

[2] = test system: collagen production in fibroblasts; assay: Collagen production in fibroblasts treated with oxytocin; settings: 72 hours
Method: FIG. 2. Fibroblasts were treated with oxytocin for 72 hours.

[3] = test system: elastin production in fibroblasts; assay: Elastin production in fibroblasts treated with oxytocin; settings: 72 hours
Method: FIG. 3. Fibroblasts were treated with oxytocin for 72 hours.

CC[C@H](C)[C@@H]1NC(=O)[C@H](Cc2ccc(O)cc2)NC(=O)[C@@H](N)CSSC[C@@H](C(=O)N2CCC[C@H]2C(=O)N[C@@H](CC(C)C)C(=O)NCC(N)=O)NC(=O)[C@H](CC(N)=O)NC(=O)[C@H](CCC(N)=O)NC1=O [oxytocin]
increase in IL-15 production compared to untreated control ([1]; 25 ng/mL oxytocin): +50%
increase in IL-15 production compared to untreated control ([1]; 100 ng/mL oxytocin): +90%
increase in IL-15 production compared to untreated control ([1]; 5 μg/mL oxytocin): +121%
increase in IL-15 production compared to untreated control ([1]; 25 μg/mL oxytocin): +165%
increase in IL-15 production compared to untreated control ([1]; 100 μg/mL oxytocin): +331%
increase in collagen production compared to untreated control ([2]; 25 μg/mL oxytocin): +109%
increase in collagen production compared to untreated control ([2]; 100 μg/mL oxytocin): +117%
increase in elastin production compared to untreated control ([3]; 25 ng/mL oxytocin): +166%
increase in elastin production compared to untreated control ([3]; 100 ng/mL oxytocin): +127%
increase in elastin production compared to untreated control ([3]; 25 μg/mL oxytocin): +133%
increase in elastin production compared to untreated control ([3]; 100 μg/mL oxytocin): +117%
